Measurements reported in ChEMBL document CHEMBL4507268 (2021).

Legend:
[1] = molecular target: Mitogen-activated protein kinase 3 (Homo sapiens) (UniProt P27361); settings: Compound concentration 1000.0 nM
[2] = molecular target: Beta-2 adrenergic receptor (Homo sapiens) (UniProt P07550); settings: Compound concentration 10.0 uM
[3] = molecular target: 5-hydroxytryptamine receptor 2A (Homo sapiens) (UniProt P28223); settings: Compound concentration 10.0 uM
[4] = molecular target: T1, Phosphatidylinositol 3-kinase C2 domain-containing subunit gamma (Homo sapiens) (UniProt O75747); settings: Compound concentration 1000.0 nM
T1 sequence (whole entry): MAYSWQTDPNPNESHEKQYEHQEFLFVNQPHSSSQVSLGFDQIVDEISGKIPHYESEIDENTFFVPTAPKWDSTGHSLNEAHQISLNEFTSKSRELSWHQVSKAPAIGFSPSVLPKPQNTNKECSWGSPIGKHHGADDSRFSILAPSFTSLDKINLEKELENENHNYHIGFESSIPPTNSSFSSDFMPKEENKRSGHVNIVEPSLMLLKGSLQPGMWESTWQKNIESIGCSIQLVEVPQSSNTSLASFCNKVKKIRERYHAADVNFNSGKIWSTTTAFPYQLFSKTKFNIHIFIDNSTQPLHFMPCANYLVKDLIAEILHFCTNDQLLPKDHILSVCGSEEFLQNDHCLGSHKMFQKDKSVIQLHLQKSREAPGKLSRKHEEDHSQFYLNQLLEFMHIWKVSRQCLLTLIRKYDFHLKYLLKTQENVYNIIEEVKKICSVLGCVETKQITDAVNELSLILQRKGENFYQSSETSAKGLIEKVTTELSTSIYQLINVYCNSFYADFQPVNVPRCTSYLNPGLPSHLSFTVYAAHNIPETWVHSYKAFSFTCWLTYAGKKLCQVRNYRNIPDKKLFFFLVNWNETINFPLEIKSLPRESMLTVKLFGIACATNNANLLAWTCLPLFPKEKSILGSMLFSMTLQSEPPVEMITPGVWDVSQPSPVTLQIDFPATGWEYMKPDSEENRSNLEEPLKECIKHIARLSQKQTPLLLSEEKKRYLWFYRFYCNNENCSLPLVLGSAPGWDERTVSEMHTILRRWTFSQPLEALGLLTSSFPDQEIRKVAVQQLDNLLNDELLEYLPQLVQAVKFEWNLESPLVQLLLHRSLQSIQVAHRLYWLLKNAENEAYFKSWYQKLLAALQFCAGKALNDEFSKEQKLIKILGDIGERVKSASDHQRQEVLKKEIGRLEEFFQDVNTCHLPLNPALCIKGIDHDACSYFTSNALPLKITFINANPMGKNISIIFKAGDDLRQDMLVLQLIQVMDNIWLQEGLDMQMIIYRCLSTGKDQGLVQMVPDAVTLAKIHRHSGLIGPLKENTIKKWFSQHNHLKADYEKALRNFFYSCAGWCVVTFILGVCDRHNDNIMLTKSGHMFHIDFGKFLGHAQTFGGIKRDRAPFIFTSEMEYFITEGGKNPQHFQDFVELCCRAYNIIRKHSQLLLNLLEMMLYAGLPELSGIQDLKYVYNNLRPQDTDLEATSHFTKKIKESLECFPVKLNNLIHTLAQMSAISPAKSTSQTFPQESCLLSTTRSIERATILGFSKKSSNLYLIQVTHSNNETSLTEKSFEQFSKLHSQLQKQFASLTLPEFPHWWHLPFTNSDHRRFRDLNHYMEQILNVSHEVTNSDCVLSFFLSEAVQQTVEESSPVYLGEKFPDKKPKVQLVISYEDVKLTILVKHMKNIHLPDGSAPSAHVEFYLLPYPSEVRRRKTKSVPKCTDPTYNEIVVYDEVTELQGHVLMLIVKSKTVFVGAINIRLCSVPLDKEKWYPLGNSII

[5] = molecular target: T2, Serine/threonine-protein kinase Nek9 (Homo sapiens) (UniProt Q8TD19); settings: Compound concentration 1000.0 nM
T2 sequence (whole entry): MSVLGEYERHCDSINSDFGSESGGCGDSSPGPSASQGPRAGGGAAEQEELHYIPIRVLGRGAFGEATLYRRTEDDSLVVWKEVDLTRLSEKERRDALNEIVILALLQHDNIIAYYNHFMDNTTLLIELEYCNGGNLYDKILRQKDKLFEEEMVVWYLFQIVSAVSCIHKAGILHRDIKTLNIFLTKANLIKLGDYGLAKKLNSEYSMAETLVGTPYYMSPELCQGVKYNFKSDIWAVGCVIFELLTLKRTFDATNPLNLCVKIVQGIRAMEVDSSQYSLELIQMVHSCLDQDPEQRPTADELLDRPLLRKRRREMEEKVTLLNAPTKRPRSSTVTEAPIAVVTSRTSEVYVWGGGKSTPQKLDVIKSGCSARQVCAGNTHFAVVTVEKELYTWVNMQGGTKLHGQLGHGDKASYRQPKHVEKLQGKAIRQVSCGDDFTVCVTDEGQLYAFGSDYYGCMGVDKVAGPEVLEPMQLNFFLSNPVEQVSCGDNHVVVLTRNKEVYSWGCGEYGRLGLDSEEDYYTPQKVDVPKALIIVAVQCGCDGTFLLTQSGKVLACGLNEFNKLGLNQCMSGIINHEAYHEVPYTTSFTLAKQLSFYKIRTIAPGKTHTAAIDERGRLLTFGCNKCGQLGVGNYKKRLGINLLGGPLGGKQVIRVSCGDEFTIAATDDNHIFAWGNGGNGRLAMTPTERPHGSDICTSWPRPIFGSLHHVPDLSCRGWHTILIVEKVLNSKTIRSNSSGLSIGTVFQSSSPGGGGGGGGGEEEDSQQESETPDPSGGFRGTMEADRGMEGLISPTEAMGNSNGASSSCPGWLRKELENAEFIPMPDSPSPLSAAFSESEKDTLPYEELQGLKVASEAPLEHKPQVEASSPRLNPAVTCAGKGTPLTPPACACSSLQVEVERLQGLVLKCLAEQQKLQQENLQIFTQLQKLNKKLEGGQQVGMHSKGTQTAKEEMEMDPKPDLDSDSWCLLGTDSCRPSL

[6] = molecular target: D(1B) dopamine receptor (Homo sapiens) (UniProt P21918); settings: Compound concentration 10.0 uM
[7] = molecular target: Serine/threonine-protein kinase PAK 6 (Homo sapiens) (UniProt Q9NQU5); settings: Compound concentration 1000.0 nM
[8] = molecular target: Mitogen-activated protein kinase 6 (Homo sapiens) (UniProt Q16659); settings: Compound concentration 1000.0 nM
[9] = molecular target: Tyrosine-protein kinase Yes (Homo sapiens) (UniProt P07947); settings: Compound concentration 1000.0 nM
[10] = molecular target: Casein kinase I isoform delta (Homo sapiens) (UniProt P48730); settings: Compound concentration 1000.0 nM
Sequence of Casein kinase I isoform delta (Homo sapiens) (P48730 whole entry, looked up, canonical isoform): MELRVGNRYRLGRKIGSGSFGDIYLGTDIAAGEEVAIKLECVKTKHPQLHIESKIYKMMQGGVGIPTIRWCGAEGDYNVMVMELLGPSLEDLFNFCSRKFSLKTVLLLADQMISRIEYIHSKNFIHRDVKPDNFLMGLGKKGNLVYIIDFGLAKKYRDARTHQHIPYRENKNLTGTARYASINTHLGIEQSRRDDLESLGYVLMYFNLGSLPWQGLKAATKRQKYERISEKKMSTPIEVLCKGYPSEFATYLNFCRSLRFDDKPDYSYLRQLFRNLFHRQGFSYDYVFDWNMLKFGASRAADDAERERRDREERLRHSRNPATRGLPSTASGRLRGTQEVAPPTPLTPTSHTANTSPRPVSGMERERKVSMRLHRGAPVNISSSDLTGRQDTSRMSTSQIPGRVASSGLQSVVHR

Sequence of Beta-2 adrenergic receptor (Homo sapiens) (P07550 whole entry, looked up): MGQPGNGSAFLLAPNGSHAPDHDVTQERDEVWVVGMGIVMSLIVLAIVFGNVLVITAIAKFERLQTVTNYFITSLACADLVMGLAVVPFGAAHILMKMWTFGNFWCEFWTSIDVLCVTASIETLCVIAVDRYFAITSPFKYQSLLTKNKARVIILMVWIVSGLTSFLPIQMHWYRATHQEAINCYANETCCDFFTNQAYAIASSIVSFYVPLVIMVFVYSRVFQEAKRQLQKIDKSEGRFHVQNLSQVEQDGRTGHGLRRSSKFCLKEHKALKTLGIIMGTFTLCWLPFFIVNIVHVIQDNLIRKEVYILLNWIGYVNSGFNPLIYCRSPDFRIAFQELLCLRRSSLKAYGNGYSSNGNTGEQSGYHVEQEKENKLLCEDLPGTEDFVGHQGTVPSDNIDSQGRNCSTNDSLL
Sequence of Mitogen-activated protein kinase 6 (Homo sapiens) (Q16659 whole entry): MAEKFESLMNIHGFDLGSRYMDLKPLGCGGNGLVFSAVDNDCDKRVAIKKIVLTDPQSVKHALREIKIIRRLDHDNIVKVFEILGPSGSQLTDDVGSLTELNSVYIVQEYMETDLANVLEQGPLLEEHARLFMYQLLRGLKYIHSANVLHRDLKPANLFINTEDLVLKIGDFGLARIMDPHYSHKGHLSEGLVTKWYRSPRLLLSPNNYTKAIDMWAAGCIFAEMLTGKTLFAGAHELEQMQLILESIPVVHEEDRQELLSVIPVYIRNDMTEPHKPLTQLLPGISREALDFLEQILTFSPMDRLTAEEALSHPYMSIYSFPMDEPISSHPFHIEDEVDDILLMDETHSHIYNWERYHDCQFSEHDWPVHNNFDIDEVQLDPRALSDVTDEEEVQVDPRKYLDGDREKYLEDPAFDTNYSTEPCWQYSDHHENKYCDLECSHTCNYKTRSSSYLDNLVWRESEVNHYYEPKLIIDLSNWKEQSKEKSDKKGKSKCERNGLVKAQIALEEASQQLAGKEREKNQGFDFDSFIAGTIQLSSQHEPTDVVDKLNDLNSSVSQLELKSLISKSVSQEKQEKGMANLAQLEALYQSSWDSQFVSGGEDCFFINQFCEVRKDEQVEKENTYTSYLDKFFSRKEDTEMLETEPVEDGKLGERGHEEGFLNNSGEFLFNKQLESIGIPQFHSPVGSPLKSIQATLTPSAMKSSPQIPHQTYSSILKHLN
Sequence of Serine/threonine-protein kinase PAK 6 (Homo sapiens) (Q9NQU5 whole entry, looked up): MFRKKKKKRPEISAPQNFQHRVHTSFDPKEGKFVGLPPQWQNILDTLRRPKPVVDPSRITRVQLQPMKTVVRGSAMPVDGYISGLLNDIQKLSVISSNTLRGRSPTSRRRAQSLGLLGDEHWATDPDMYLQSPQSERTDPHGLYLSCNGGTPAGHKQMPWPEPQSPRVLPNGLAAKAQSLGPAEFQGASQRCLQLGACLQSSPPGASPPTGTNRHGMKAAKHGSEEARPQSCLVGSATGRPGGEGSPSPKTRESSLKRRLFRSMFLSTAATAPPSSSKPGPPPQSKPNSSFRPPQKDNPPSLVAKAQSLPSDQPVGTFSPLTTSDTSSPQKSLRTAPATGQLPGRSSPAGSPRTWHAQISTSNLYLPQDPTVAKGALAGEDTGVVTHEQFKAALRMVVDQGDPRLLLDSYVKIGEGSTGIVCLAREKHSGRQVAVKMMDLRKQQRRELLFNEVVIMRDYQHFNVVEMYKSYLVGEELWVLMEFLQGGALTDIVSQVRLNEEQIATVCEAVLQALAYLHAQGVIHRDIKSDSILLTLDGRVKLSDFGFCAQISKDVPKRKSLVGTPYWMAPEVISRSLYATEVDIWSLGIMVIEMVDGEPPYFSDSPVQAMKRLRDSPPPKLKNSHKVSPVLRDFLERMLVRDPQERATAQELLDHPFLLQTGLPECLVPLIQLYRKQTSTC
Sequence of D(1B) dopamine receptor (Homo sapiens) (P21918 whole entry): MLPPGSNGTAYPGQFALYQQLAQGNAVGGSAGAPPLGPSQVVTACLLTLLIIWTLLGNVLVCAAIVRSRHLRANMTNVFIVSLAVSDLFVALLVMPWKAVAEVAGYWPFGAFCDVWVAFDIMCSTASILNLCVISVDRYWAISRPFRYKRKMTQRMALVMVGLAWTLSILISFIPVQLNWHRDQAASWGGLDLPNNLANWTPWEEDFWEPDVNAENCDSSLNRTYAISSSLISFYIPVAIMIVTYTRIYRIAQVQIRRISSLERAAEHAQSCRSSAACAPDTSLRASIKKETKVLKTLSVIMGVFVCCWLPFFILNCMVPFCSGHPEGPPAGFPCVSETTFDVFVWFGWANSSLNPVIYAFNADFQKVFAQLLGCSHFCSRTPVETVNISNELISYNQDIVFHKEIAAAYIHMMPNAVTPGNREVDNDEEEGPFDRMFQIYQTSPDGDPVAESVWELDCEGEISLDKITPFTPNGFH
Sequence of Mitogen-activated protein kinase 3 (Homo sapiens) (P27361 whole entry): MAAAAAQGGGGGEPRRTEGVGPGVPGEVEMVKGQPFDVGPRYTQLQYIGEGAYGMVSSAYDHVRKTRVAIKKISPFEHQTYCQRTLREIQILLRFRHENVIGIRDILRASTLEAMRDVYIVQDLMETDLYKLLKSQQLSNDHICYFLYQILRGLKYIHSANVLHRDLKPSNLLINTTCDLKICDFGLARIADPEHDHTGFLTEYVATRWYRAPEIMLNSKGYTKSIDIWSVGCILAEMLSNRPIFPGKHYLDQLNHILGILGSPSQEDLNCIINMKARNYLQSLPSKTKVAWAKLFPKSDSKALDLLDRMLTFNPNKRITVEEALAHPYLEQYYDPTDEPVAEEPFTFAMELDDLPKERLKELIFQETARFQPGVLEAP
Sequence of 5-hydroxytryptamine receptor 2A (Homo sapiens) (P28223 whole entry, the tested form may be a part): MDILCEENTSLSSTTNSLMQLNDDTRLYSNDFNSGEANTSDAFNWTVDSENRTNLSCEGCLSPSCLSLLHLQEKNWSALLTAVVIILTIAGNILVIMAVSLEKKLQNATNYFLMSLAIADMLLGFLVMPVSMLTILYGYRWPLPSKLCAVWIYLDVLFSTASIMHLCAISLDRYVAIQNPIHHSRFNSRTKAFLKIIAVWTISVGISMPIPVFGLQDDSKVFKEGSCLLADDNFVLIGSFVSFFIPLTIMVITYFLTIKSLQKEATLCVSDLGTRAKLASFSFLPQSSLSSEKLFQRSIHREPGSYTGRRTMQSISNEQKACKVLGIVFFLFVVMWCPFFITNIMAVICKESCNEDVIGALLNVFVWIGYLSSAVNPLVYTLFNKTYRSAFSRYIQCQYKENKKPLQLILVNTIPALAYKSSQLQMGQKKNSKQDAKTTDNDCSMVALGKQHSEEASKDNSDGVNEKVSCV
Sequence of Tyrosine-protein kinase Yes (Homo sapiens) (P07947 2-543 limits assumed): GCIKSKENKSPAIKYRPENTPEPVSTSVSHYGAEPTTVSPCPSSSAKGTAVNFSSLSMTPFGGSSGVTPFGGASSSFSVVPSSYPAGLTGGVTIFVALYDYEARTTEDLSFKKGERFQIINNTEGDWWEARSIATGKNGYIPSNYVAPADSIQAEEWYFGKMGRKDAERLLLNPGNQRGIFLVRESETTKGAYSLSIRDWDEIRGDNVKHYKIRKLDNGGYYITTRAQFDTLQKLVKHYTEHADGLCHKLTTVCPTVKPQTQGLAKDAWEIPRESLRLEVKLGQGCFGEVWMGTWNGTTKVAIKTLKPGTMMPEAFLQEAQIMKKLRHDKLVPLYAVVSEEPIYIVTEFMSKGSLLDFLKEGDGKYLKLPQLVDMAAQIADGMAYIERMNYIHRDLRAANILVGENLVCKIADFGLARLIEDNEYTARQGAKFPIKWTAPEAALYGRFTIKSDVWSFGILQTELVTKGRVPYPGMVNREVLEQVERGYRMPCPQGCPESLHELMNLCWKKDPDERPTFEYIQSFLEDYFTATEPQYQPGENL

Cc1nc(C2CCN(C(=O)c3ccc(OC(F)(F)F)cc3N)CC2)c2ncc(N3CCN(C)CC3)cc2n1 [BAY-693]
inactive: residual activity [1] 98% | inhibition [2] -5.65% | inhibition [3] 4.68% | residual activity [4] 100% | residual activity [5] 94% | inhibition [6] 12.4% | residual activity [7] 93% | residual activity [8] 100% | residual activity [9] 100% | residual activity [10] 83%

CN1CCN(c2cnc3c(C4CCN(C(=O)c5ccc(OC(F)(F)F)cc5N)CC4)ncnc3c2)CC1 [BAY-885]
inactive: residual activity [1] 100% | inhibition [2] -4.21% | inhibition [3] 4.33% | residual activity [4] 100% | residual activity [5] 100% | inhibition [6] 4.63% | residual activity [7] 100% | residual activity [8] 100% | residual activity [9] 100% | residual activity [10] 100%
